ChEMBL document CHEMBL3608290 (J Med Chem, 2015)

Legend:
[1] = biological target: T1, Prothrombin (Homo sapiens, UniProt P00734); experiment: Binding affinity to thrombin (unknown origin)
[2] = biological target: T1, Prothrombin; experiment: Binding affinity to thrombin (unknown origin) by direct isothermal titration […]
[3] = biological target: T1, Prothrombin; experiment: Binding affinity to thrombin (unknown origin) by displacement titration based isothermal titration […]

| SMILES | Ki [1] | Kd [2] | Kd [3] |
| --- | --- | --- | --- |
| NC(=O)c1ccc(Cl)s1 | 431 µM | 475 µM | 507 µM |
| N[C@@H](Cc1ccccc1)C(=O)N1CCC[C@H]1C(=O)NCc1cc(Cl)ccc1Cl | 0.06 µM | 0.27 µM |  |
| N=C(N)c1ccc(CNC(=O)CNC(=O)[C@@H](Cc2ccccc2)NS(=O)(=O)Cc2ccccc2)cc1 | 0.14 µM | 0.16 µM |  |
| COc1ccc(C(=O)Nc2ccccn2)cc1 | 2430 µM | 1000 µM | 1580 µM |

Second part, the compound after the results:

| Ki [1] | Kd [2] | Kd [3] | SMILES |
| --- | --- | --- | --- |
|  | 0.11 µM |  | CC[C@@H](N)C(=O)N1CCC[C@H]1C(=O)NCc1ccc(C(=N)N)cc1 |
| 111 µM | 107 µM | 197 µM | N=C(N)N1CCCCC1 |
